Measurements: article PMC8282797, “Strictly regulated agonist-dependent activation of AMPA-R is the key characteristic of TAK-653 for robust synaptic responses and cognitive improvement” (Scientific Reports, 2021)

Key:
[1] = system: GluA1-4i and TARP γ-2 or GluA1-4o and TARP γ-2; experiment: Ca2+ influx assay, AMPA-R subunit selectivity; format: cell-based, human
Description: Human GluA1/flip and human stargazin co-expressing CHO cells were plated at 3×10^4 cells/well in 96-well Black Clear plate (Corning Incorporated, Corning, NY). For subunit selectivity study, human AMPA-Rs (GluA1-4i, GluA1-4o and GluA1i mutants) and human TARPs γ2 co-expressing CHO cells were plated. For evaluation of the species difference, rat GluA1/flip expressing CHO cells were plated. For mutant channels, Human GluA1i S743A mutant was generated by In-Fusion HD Cloning Kit (Takara Bio Inc., Kusatsu, Japan) according to manufacturer's protocol. Each hGluA1i mutant vector was transiently introduced to CHO cells by Gene Pulser II Electroporation System (Bio-Rad Laboratories, Inc., Hercules, CA) and incubated for 6 h in 5% CO2 at 37°C. Then, cells were harvested and plated. These cells were seeded at 3×10^4 cells/well in 96-well Black Clear plate and incubated for 24 h in 5% CO2 at 37°C. […] Relative increases of intracellular Ca^2+ levels by compounds in the presence and absence of 3 mM L-glutamate were monitored for 3 min by fluorometric imaging plate reader (CellLux, Perkin Elmer Life and Analytical Sciences, Inc., Shelton, CT). Activity of compound was defined as integration value of fluorescence value of each detection point. […] EC50 values were calculated by logistic regression analysis. […]

rats = experiment: Exposure margin against seizure after acute treatment; format: in vivo, rat; details: NOR improvement versus absence of seizure signs
Description: Thus, we decided to calculate the exposure safety margins of AMPA-R potentiators based on the cognitive improvement in the NOR test and the absence of signs of seizures. […] Thus, TAK-653 may have a wider exposure margin than LY451646 in rats.
The data were extracted from the studies conducted in accordance with the Good Laboratory Practice Regulation. […] The dose levels in the first study and second study were set at "100, 15 and 5 mg/kg, p.o." and "50, 15 and 5 mg/kg, p.o.", respectively. The dosing suspensions were administered into the stomach via a catheter in the morning at the dose volume of 5 mL/kg. Cage side observations to confirm tonic or […] convulsions were conducted before and at 1, 2, 4, 8 and 24 h after dosing in the first study and before and at 1, 4 and 24 h after dosing in the second study.
The Sprague–Dawley rats treated with orally administered TAK-653 were decapitated at each time point, and trunk blood was collected into 1.5-mL centrifuge tubes. Plasma was separated from the blood samples by centrifugation. The concentrations of TAK-653 in the plasma were determined using liquid chromatography/tandem mass spectrometry (LC/MS/MS).

GluA1i S743A = target: T1, GluA1i S743A (Homo sapiens, UniProt P42261, S743A); experiment: Ca2+ influx assay in CHO cells expressing GluA1i S743A; format: cell-based; details: at each concentration of glutamate tested (0, 0.3 μM, 1 μM, 3 mM)
T1 construct: expressed in transfected cells; host or cells: CHO cells, transient electroporation
T1 sequence (P42261 19-906 isoform P42261-2 S743A limits assumed): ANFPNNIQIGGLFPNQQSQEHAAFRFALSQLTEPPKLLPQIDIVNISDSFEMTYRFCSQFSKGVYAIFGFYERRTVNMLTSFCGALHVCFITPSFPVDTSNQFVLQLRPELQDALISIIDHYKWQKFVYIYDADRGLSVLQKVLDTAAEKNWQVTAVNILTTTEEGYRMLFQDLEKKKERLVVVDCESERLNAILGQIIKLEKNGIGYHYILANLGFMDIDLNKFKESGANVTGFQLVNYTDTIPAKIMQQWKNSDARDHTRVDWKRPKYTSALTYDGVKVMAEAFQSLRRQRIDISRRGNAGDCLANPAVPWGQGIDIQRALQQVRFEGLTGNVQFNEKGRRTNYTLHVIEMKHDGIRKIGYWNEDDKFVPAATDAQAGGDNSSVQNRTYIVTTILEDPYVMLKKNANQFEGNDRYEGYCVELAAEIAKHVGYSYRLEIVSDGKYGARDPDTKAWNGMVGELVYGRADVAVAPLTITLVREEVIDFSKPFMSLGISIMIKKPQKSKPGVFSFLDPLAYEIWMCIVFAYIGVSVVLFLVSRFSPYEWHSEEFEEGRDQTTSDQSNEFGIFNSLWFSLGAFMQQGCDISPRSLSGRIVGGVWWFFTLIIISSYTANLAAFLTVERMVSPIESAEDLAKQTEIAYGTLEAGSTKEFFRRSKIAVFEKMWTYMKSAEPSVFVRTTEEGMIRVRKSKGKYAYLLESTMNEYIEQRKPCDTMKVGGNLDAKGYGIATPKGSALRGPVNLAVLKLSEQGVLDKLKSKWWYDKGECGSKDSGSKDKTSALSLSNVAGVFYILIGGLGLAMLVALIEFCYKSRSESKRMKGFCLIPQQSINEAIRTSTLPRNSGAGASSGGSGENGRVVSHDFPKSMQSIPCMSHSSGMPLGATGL
T1 sequence (Q9Y698 whole entry partner): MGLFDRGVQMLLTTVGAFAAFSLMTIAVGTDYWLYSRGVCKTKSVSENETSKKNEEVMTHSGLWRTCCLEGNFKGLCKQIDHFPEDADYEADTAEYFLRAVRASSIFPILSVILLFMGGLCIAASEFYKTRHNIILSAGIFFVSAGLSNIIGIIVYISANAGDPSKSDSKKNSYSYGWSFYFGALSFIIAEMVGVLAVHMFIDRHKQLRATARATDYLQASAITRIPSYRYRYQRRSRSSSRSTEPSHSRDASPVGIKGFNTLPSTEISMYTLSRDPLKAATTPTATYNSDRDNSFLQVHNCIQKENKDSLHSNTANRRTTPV
Description: Ca^2+ influx assays using human GluA1/flip and human stargazin co-expressing CHO cells plated at 3 × 10^4 cells/well in 96-well Black Clear plates (Corning Incorporated, Corning, NY) were performed as previously described, with some modifications. For evaluation of the species difference, rat GluA1/flip expressing CHO cells were plated. For mutant channels, the human GluA1i S743A mutant was generated using the In-Fusion HD Cloning Kit (Takara Bio Inc., Kusatsu, Japan) according to the manufacturer's protocol and transiently introduced to CHO cells by Gene Pulser II Electroporation System (Bio-Rad Laboratories, Inc., Hercules, CA). Relative increases of intracellular Ca^2+ levels were monitored for 3 min with a fluorometric imaging plate reader (CellLux, Perkin Elmer Life and Analytical Sciences, Inc., Shelton, CT). […]
Human GluA1/flip and human stargazin co-expressing CHO cells were plated at 3×10^4 cells/well in 96-well Black Clear plate (Corning Incorporated, Corning, NY). […] Relative increases of intracellular Ca^2+ levels by compounds in the presence and absence of 3 mM L-glutamate were monitored for 3 min by fluorometric imaging plate reader (CellLux, Perkin Elmer Life and Analytical Sciences, Inc., Shelton, CT). Activity of compound was defined as integration value of fluorescence value of each detection point. […] EC50 values were calculated by logistic regression analysis.

BDNF protein levels = experiment: BDNF production in primary neurons; format: cell-based, rat; details: 24 h
Description: BDNF production in primary neurons was measured as previously described. Primary cultures of hippocampal neuronal cells at a density of 5 × 10^4 cells/well plated on poly-L-lysine coated 96-well plates (Sumitomo Bakelite) were treated with compounds in the presence or absence of AMPA (1 μM) and cultured in a humidified CO2 incubator with 5% CO2 at 37 °C for 24 h. The cells were washed once using phosphate buffered saline and were collected using 60 μL of lysis buffer (20 mM Tris-HCl at pH 8.0, 137 mM NaCl, 10% glycerol, 1% NP-40, 1% protease inhibitor cocktail [Sigma-Aldrich, St. Louis, MO]). Concentrations of BDNF protein were measured using BDNF ELISA Kits (Promega, Fitchburg, WI).
Primary cultures of hippocampal neuronal cells were prepared from fetal Sprague-Dawley rats at 19 days of gestation. Rat embryos were decapitated and their whole brains were isolated. Hippocampi were dissected in ice-cold Hanks' Balanced Salt Solutions (HBSS) under a microscope and then dispersed into cells using a neural cell dispersion kit (Sumitomo Bakelite Co., Ltd., Tokyo, Japan). The dissociated cells were suspended in Neurobasal medium containing B27 supplement (Thermo Fisher Scientific Inc.), 2 mM L-glutamine (Lonza, Basel, Switzerland), 100 U/mL penicillin (Lonza), 100 μg/mL streptomycin (Lonza) and 20 μg/mL gentamicin sulfate (Lonza). […]

Compound: CC1=CN2CCS(=O)(=O)N=C2C(c2ccc(OC3CCCCC3)cc2)=N1 [TAK-653, 9-[4-(Cyclohexyloxy)phenyl]-7-methyl-3,4-dihydropyrazino[2,1-c][1,2,4]thiadiazine 2,2-dioxide]
- Subunit selectivity for homomeric AMPA-R [1]: did not show prominent subunit selectivity
- Margin based on AUCplasma (rats): 1017 fold
- Margin based on plasma Cmax (rats): 419 fold
- Maximum responses in S743A GluA1i versus wild-type GluA1i CHO cells (GluA1i S743A): higher
- BDNF protein levels (BDNF protein levels; compound alone at 1 μM): slightly increased
- BDNF protein levels (BDNF protein levels; in the presence of AMPA (1 μM)): robustly increased
